The target in the test is T1, human HAQ STING isoform (hSTING HAQ) (Homo sapiens, UniProt Q86WV6, G230A/H232R/R293Q/R71H).
T1 construct: THP1 cells express the naturally occurring human HAQ STING isoform (hSTING HAQ); host or cells: THP1
T1 sequence (Q86WV6 whole entry R71H/G230A/H232R/R293Q, canonical isoform): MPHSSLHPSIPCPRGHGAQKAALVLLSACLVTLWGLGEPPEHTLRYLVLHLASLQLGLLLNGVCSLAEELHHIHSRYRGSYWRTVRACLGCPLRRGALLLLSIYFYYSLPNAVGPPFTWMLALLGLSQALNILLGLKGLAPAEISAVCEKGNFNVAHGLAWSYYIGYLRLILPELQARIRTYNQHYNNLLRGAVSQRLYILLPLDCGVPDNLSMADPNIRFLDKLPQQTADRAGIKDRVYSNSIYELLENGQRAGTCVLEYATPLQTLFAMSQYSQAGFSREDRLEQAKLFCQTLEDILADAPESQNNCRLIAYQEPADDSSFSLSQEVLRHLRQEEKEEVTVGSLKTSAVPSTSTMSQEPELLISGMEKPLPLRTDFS
In words: IFN-β mRNA level in THP1 cells (qPCR, STING agonist cellular activity). It counts as cell-based. The note with it: compound at 3.6 μM, 2 hrs, IFNβ expression normalized against GAPDH by the 2^-ΔΔCT method, DMSO = 1.0. In short, it runs like this: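 THP1 cells were seeded at 9×10^5 per well, incubated overnight, then treated with compound at 3.6 μM final (0.1% DMSO control) for 2 hrs at 37 °C. IFN-β mRNA was measured by SYBR Green qPCR, normalised to GAPDH by the 2^−ΔΔCT method, in triplicate.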
For the molecule `COc1cc(CN(Cc2cn3c4c(c(F)c(F)cc4c2=O)OC(C)(C)C3)[C@H]2CCCN(c3ccc(N)nc3)C2)ccn1` [Compound 50, (S)-6-(((1-(6-aminopyridin-3-yl)piperidin-3-yl)((2-methoxypyridin-4-yl)methyl)amino)methyl)-9,10-difluoro-2,2-dimethyl-2H-[1,4]oxazino[2,3,4-ij]quinolin-7(3H)-one], the “Relative mRNA INFβ/GAPDH THP 1” value turned out to be 6723.5. The figure for `COc1cc(CN(Cc2cn3c4c(c(F)c(F)cc4c2=O)OC(C)C3)[C@H]2CCCN(c3ccc(N)nc3)C2)ccn1` (stereo partly drawn) [Compound 51, 6-((((S)-1-(6-aminopyridin-3-yl)piperidin-3-yl)((2-methoxypyridin-4-yl)methyl)amino)methyl)-9,10-difluoro-2-methyl-2H-[1,4]oxazino[2,3,4-ij]quinolin-7(3H)-one] is 7257.8; for `COc1cc(CN(Cc2cn3c4c(cc(F)c(F)c4c2=O)OCC3C)[C@H]2CCCN(c3ccc(N)nc3)C2)ccn1` (stereo partly drawn) [Compound 52, 6-((((S)-1-(6-aminopyridin-3-yl)piperidin-3-yl)((2-methoxypyridin-4-yl)methyl)amino)methyl)-8,9-difluoro-3-methyl-2H-[1,4]oxazino[2,3,4-ij]quinolin-7(3H)-one] it is 178.2; for `COc1cc(CN(Cc2cn3c4c(c(F)c(F)cc4c2=O)OCC3C)[C@H]2CCCN(c3cnc4[nH]ncc4c3)C2)ccn1` (stereo partly drawn) [Compound 54, 6-((((S)-1-(1H-pyrazolo[3,4-b]pyridin-5-yl)piperidin-3-yl)((2-methoxypyridin-4-yl)methyl)amino)methyl)-9,10-difluoro-3-methyl-2H-[1,4]oxazino[2,3,4-ij]quinolin-7(3H)-one] it is 3.9. As for `COc1cc(CN(Cc2cn3c4c(c(Br)c(F)cc4c2=O)OCC3C)[C@H]2CCCN(c3ccc(N)nc3)C2)ccn1` (stereo partly drawn) [Compound 55, 6-((((S)-1-(6-aminopyridin-3-yl)piperidin-3-yl)((2-methoxypyridin-4-yl)methyl)amino)methyl)-10-bromo-9-fluoro-3-methyl-2H-[1,4]oxazino[2,3,4-ij]quinolin-7(3H)-one], the “Relative mRNA INFβ/GAPDH THP 1” value is 655.0.

For `COc1cc(CN(Cc2cn3c4c(c(-c5ccncc5)c(F)cc4c2=O)OCC3C)[C@H]2CCCN(c3ccc(N)nc3)C2)ccn1` (stereo partly drawn) [Compound 56, 6-((((S)-1-(6-aminopyridin-3-yl)piperidin-3-yl)((2-methoxypyridin-4-yl)methyl)amino)methyl)-9-fluoro-3-methyl-10-(pyridin-4-yl)-2H-[1,4]oxazino[2,3,4-ij]quinolin-7(3H)-one], the “Relative mRNA INFβ/GAPDH THP 1” value came out at 366.2. The figure for `COc1cc(CN(Cc2cn3c4c(c(C)c(F)cc4c2=O)OCC3C)[C@H]2CCCN(c3ccc(N)nc3)C2)ccn1` (stereo partly drawn) [Compound 57, 6-((((S)-1-(6-aminopyridin-3-yl)piperidin-3-yl)((2-methoxypyridin-4-yl)methyl)amino)methyl)-9-fluoro-3,10-dimethyl-2H-[1,4]oxazino[2,3,4-ij]quinolin-7(3H)-one] is 580.9; for `COc1cc(CN(Cc2cn3c4c(c(C5=CCSCC5)c(F)cc4c2=O)OCC3C)[C@H]2CCCN(c3ccc(N)nc3)C2)ccn1` (stereo partly drawn) [Compound 58, 6-((((S)-1-(6-aminopyridin-3-yl)piperidin-3-yl)((2-methoxypyridin-4-yl)methyl)amino)methyl)-10-(3,6-dihydro-2H-thiopyran-4-yl)-9-fluoro-3-methyl-2H-[1,4]oxazino[2,3,4-ij]quinolin-7(3H)-one] it is 688.4. On to `COc1cc(CN(Cc2cn3c4c(c(C5=CCN(C6CC6)CC5)c(F)cc4c2=O)OCC3C)[C@H]2CCCN(c3ccc(N)nc3)C2)ccn1` (stereo partly drawn) [Compound 59, 6-((((S)-1-(6-aminopyridin-3-yl)piperidin-3-yl)((2-methoxypyridin-4-yl)methyl)amino)methyl)-10-(1-cyclopropyl-1,2,3,6-tetrahydropyridin-4-yl)-9-fluoro-3-methyl-2H-[1,4]oxazino[2,3,4-ij]quinolin-7(3H)-one], for which the “Relative mRNA INFβ/GAPDH THP 1” value is listed as 316.7.

Source of the values: US20250171461A1, “STIMULATOR OF INTERFERON GENES (STING) MODULATORS, AND COMPOSITIONS AND METHODS THEREOF” (Geode Therapeutics Inc., priority 2022, published 2025).
